Measurements reported in PMC3714282, “Pharmacometabolomics of Response to Sertraline and to Placebo in Major Depressive Disorder – Possible Role for Methoxyindole Pathway” (PLoS ONE, 2013).

Assays:
[1] = system: outpatients with MDD; experiment: Randomized double-blind 4-week trial, response by 17-item Hamilton Rating Scale for Depression (HAMD17); assay type: in vivo, human
Source text: The 75 patients in this report were a subset of the 165 patients who entered a randomized, double-blind, flexible dosing, placebo-controlled study performed at 12 clinical sites. […] Subjects selected for this study were those with serum samples and HAMD17 scores available at baseline and 1 week and at 4 weeks (+/−1 week) after treatment. Finally, the subset of participants in this study largely overlaps with those used in our previous study.
Study participants were outpatients, 18–65 years of age, from various clinical sites across the United States. […] A complete description of the inclusion and exclusion used in this study can be found in Table S1. The study protocol was developed in accordance with the principles of the Declaration of Helsinki. All patients provided written informed consent. The study was sponsored and monitored by Pfizer, Inc. Each site's institutional review board approved and oversaw the study. The primary outcome measure was the HAMD17, used to assess depressive symptom severity. Measures were gathered at baseline, and weeks 1 and 4 of treatment at the patient's visits. Serum samples were collected using standard protocol at baseline, week 1 and week 4 of treatment at the clinic visits. Whole blood was collected in serum collection tubes and inverted 5–8 times. Serum samples were allowed to clot at room temperature for 60 minutes and then centrifuged at 1,300×g for 15 minutes. Following centrifugation supernatant was frozen at −80°C until analysis.
(§1) Signatures of response to sertraline and placebo were identified by using paired t-tests to compare week 4 metabolite levels to baseline metabolite levels in the responders and non-responders to therapy. […] These analyses were also performed to evaluate changes in ratios of individual metabolites within (e.g., 5-HT/5-HTP) and between branches of tryptophan pathway (e.g., KYN/MEL).

[2] = system: 5-Methoxytryptamine (5-MTPM); experiment: GCTOF-MS measurement of serum 5-Methoxytryptamine (5-MTPM): change from baseline at week 1 and week 4; assay type: in vivo, human; conditions: for Change in 5-MTPM levels / Change 5-MTPM: serum; for Change in 5-MTPM levels: four weeks; for Change 5-MTPM: log-transformed concentration
Description: Samples were analyzed using a liquid chromatography electrochemical array (LCECA) platform that has been extensively validated and used in our prior studies in neurodegenerative and psychiatric disorders [30]–[34]. The method includes multiple compounds from the tyrosine, tryptophan, sulfur amino acids and purine pathways, and markers of oxidative stress and protection (for the list of metabolites and abbreviations see Table 1). Levels of 5-Methoxytryptamine (5-MTPM) were measured using a gas chromatography time-of-flight-mass spectrometry (GCTOF-MS) platform. Samples were prepared for analysis as previously described. During the sample preparation, pools were created from equal volumes of subaliquots of all samples. Concentrations of metabolites in the individual samples were expressed as a percentage of the concentration of those metabolites in the averaged pool.
Data preprocessing: We first removed the metabolites that have more than 40% missing values. […] Principal components analysis (PCA; SIMCA-P+12.0) was used to identify outliers. The analysis was performed for each time point. […] Subjects with ≥3 standard deviations away from the center of data cloud within two principal components (PC's) scores scatter plot were considered outliers and were removed from further analysis.
These analyses were conducted separately for the sertraline and placebo groups. Between groups t-tests were used to compare baseline to one week and baseline to four week change scores between the sertraline and placebo groups.
as §1

With `CN[C@H]1CC[C@@H](c2ccc(Cl)c(Cl)c2)c2ccccc21` [Sertraline, sertraline] the “APC, average percent change in HAMD17 score” value ([1]; Female patients) was “Female: APC= -55%”, the “APC, average percent change in HAMD17 score” value ([1]; Non-White patients) was “Non-White: APC= -52%” and the “response rate (responders: ≥50% reduction in HAMD17 scores)” value ([1]; after four weeks, 21/35 patients, 50-150 mg/day) was 60%. The “Change of 5-MTPM (average change of log-transformed concentration)” value ([2]; after four week of treatment, non-responders) was -0.11, the “Change of 5-MTPM (average change of log-transformed concentration)” value ([2]; after four week of treatment, responders) was -0.42 and the “Change of 5-MTPM (average change of log-transformed concentration)” value ([2]; after one week of treatment, non-responders) was -0.052. For the same compound, the “Change in 5-MTPM levels” value ([2]; good responders to sertraline) was “significant decrease”, the “Change in 5-MTPM levels” value ([2]; non-responders to sertraline) was “not significantly changed” and the “Change 5-MTPM” value ([2]; after four weeks, sertraline group) was −0.29. The “Change 5-MTPM” value ([2]; after one week, responders to sertraline) was -0.21.
